Experimental data from patent US5110800A, “Derivatives of erythromycylamine” (Eli Lilly and Company, priority 1989, dated 1992).
≈ marks a conversion by molar mass, not a printed value. Where two headings read alike, the source gives them in different places.

What was measured:
Experiment in all cases: MIC, standard agar-dilution assay
Assay type in all cases: cell-based
[1] = system: Escherichia coli EC14; settings: Escherichia coli
[2] = system: Staphylococcus aureus X1.1; settings: Staphylococcus aureus, X1.1, read-out: minimal inhibitory concentration (MIC)
[3] = system: Streptococcus sp. group D 2041; settings: Streptococcus, read-out: minimal inhibitory concentration (MIC)
[4] = system: Streptococcus pneumoniae Park I; settings: Streptococcus pneumoniae, read-out: minimal inhibitory concentration (MIC)
[5] = system: Streptococcus sp. group D X66; settings: Streptococcus, read-out: minimal inhibitory concentration (MIC)
[6] = system: Klebsiella pneumoniae X68; settings: Klebsiella pneumoniae
[7] = system: Streptococcus pyogenes C203; settings: Streptococcus pyogenes
[8] = system: Haemophilus influenzae 76; settings: Haemophilus influenzae, 76; Table IV; ampicillin-resistant strain; read-out: minimal inhibitory concentration (MIC)
[9] = system: Staphylococcus aureus S13E; settings: Staphylococcus aureus, S13E, read-out: minimal inhibitory concentration (MIC)
[10] = system: Staphylococcus epidermidis 222
[11] = system: Haemophilus influenzae C.L.; settings: Haemophilus influenzae, read-out: minimal inhibitory concentration (MIC)
[12] = system: Staphylococcus aureus X400; settings: Staphylococcus aureus
Description: (§1) In addition to excellent in vitro activity against erythromycin-sensitive bacteria, several members of this new series have shown in vitro activity against erythromycin-resistant strains. These include strains which are inducibly-resistant to erythromycin (S. aureus V41 and X400 and S. epidermidis EPI1) and even strains which are constitutively-resistant (S. epidermidis 270).

[13] = system: Staphylococcus epidermidis 270
Description: as §1

[14] = system: Staphylococcus aureus V41; settings: Staphylococcus aureus
Description: as §1

[15] = system: Staphylococcus epidermidis EPI1; settings: EPI1, read-out: minimal inhibitory concentration (MIC)
Description: as §1

[16] = EC14, Table IV, agar dilution, read-out: minimal inhibitory concentration (MIC)
[17] = X68, read-out: minimal inhibitory concentration (MIC)
[18] = C203, read-out: minimal inhibitory concentration (MIC)
[19] = Staphylococcus epidermidis, 222, read-out: minimal inhibitory concentration (MIC)
[20] = X400, Table IV, methicillin-resistant strain, inducibly erythromycin-resistant, read-out: minimal inhibitory concentration (MIC)
[21] = Staphylococcus epidermidis, 270, Table IV, constitutively erythromycin-resistant, read-out: minimal inhibitory concentration (MIC)
[22] = V41, Table IV, penicillin-resistant strain, inducibly erythromycin-resistant, read-out: minimal inhibitory concentration (MIC)
[23] = X68, Table IV, agar dilution, read-out: minimal inhibitory concentration (MIC)
[24] = Table IV, ampicillin-sensitive strain
[25] = EC14, Table V, agar dilution, read-out: minimal inhibitory concentration (MIC)
[26] = X68, Table V, agar dilution, read-out: minimal inhibitory concentration (MIC)
[27] = X400, Table V, methicillin-resistant strain, inducibly erythromycin-resistant, read-out: minimal inhibitory concentration (MIC)
[28] = V41, Table V, penicillin-resistant strain, inducibly erythromycin-resistant, read-out: minimal inhibitory concentration (MIC)
[29] = EC14, read-out: minimal inhibitory concentration (MIC)

SMILES	MIC [2]	MIC [3]	MIC [4]	MIC [5]	MIC [7, 18]	MIC [8]	MIC [9]	MIC [10, 19]	MIC [11]	MIC [12, 20]	MIC [13, 21]	MIC [14, 22]	MIC [6, 26]	MIC [15]	MIC [12, 27]	MIC [14, 28]	also measured
CCCN[C@@H]1[C@H](C)[C@@H](O)[C@@H](C)[C@@H](CC)OC(=O)[C@H](C)[C@@H](O[C@H]2C[C@@](C)(OC)[C@@H](O)[C@H](C)O2)[C@H](C)[C@@H](O[C@@H]2O[C@H](C)C[C@H](N(C)C)[C@H]2O)[C@](C)(O)C[C@H]1C [Compound 38]	0.5 µg/mL (≈ 0.657 µM)	2 µg/mL (≈ 2.63 µM)	0.125 µg/mL (≈ 0.164 µM)	0.125 µg/mL (≈ 0.164 µM)	0.125 µg/mL (≈ 0.164 µM)	4 µg/mL (≈ 5.26 µM)	1 µg/mL (≈ 1.31 µM)	0.5 µg/mL (≈ 0.657 µM)	2 µg/mL (≈ 2.63 µM)	64 µg/mL (≈ 84.1 µM)	> 128 µg/mL	8 µg/mL (≈ 10.5 µM)					MIC [1, 16]: 64 µg/mL (≈ 84.1 µM); MIC [6, 17]: 128 µg/mL (≈ 168 µM)
CCCCCCCCCCN[C@@H]1[C@H](C)[C@@H](O)[C@@H](C)[C@@H](CC)OC(=O)[C@H](C)[C@@H](O[C@H]2C[C@@](C)(OC)[C@@H](O)[C@H](C)O2)[C@H](C)[C@@H](O[C@@H]2O[C@H](C)C[C@H](N(C)C)[C@H]2O)[C@](C)(O)C[C@H]1C [Compound 41]	2 µg/mL (≈ 2.33 µM)			0.5 µg/mL (≈ 0.582 µM)		4 µg/mL (≈ 4.66 µM)	1 µg/mL (≈ 1.16 µM)	0.5 µg/mL (≈ 0.582 µM)		4 µg/mL (≈ 4.66 µM)	8 µg/mL (≈ 9.31 µM)	4 µg/mL (≈ 4.66 µM)					MIC [1, 16]: > 128 µg/mL; MIC ([3]; Table IV, agar dilution): 4 µg/mL (≈ 4.66 µM); MIC ([4]; Table IV, agar dilution): 0.03 µg/mL (≈ 0.0349 µM); MIC [6, 23]: > 128 µg/mL; MIC ([7]; C203, Table IV, agar dilution, read-out: minimal inhibitory concentration (MIC)): 0.03 µg/mL (≈ 0.0349 µM); MIC [11, 24]: 8 µg/mL (≈ 9.31 µM)
CC[C@H]1OC(=O)[C@H](C)[C@@H](O[C@H]2C[C@@](C)(OC)[C@@H](O)[C@H](C)O2)[C@H](C)[C@@H](O[C@@H]2O[C@H](C)C[C@H](N(C)C)[C@H]2O)[C@](C)(O)C[C@@H](C)[C@H](N(C)C(C)C)[C@H](C)[C@@H](O)[C@]1(C)O [Compound 70, 9-Deoxo-9-[(N-methyl-N-isopropyl)amino]erythromycin]	8 µg/mL (≈ 10.1 µM)		0.5 µg/mL (≈ 0.632 µM)	2 µg/mL (≈ 2.53 µM)	0.5 µg/mL (≈ 0.632 µM)			8 µg/mL (≈ 10.1 µM)					> 128 µg/mL	> 128 µg/mL	> 128 µg/mL	> 128 µg/mL	MIC [1, 25]: > 128 µg/mL
CCCN1CO[C@@H]2[C@@H](C)[C@@H]1[C@H](C)C[C@@](C)(O)[C@H](O[C@@H]1O[C@H](C)C[C@H](N(C)C)[C@H]1O)[C@@H](C)[C@H](O[C@H]1C[C@@](C)(OC)[C@@H](O)[C@H](C)O1)[C@@H](C)C(=O)O[C@H](CC)[C@@]2(C)O [Compound 59]				0.125 µg/mL (≈ 0.158 µM)				0.125 µg/mL (≈ 0.158 µM)						> 128 µg/mL			
CC[C@H]1OC(=O)[C@H](C)[C@@H](O[C@H]2C[C@@](C)(OC)[C@@H](O)[C@H](C)O2)[C@H](C)[C@@H](O[C@@H]2O[C@H](C)C[C@H](N(C)C)[C@H]2O)[C@](C)(O)C[C@@H](C)[C@H](N2CCCCC2)[C@H](C)[C@@H](O)[C@]1(C)O [Compound 72, 9-Deoxo-9-(1-piperidinyl)erythromycin]	16 µg/mL (≈ 19.9 µM)	128 µg/mL (≈ 159 µM)	1 µg/mL (≈ 1.25 µM)		1 µg/mL (≈ 1.25 µM)			8 µg/mL (≈ 9.96 µM)	2 µg/mL (≈ 2.49 µM)				> 128 µg/mL	> 128 µg/mL	> 128 µg/mL	> 128 µg/mL	MIC [1, 25]: > 128 µg/mL
CC[C@H]1OC(=O)[C@H](C)[C@@H](O[C@H]2C[C@@](C)(OC)[C@@H](O)[C@H](C)O2)[C@H](C)[C@@H](O[C@@H]2O[C@H](C)C[C@H](N(C)C)[C@H]2O)[C@](C)(O)C[C@@H](C)[C@H](NCCCC#N)[C@H](C)[C@@H](O)[C@]1(C)O [Compound 29, 9-Deoxo-9-[(3-cyanopropyl)amino]erythromycin]	1 µg/mL (≈ 1.25 µM)			0.125 µg/mL (≈ 0.156 µM)	1 µg/mL (≈ 1.25 µM)	4 µg/mL (≈ 4.99 µM)	128 µg/mL (≈ 160 µM)	1 µg/mL (≈ 1.25 µM)	2 µg/mL (≈ 2.49 µM)								MIC [1, 16]: 64 µg/mL (≈ 79.8 µM); MIC ([3]; Table IV, agar dilution): 4 µg/mL (≈ 4.99 µM); MIC [6, 17]: 128 µg/mL (≈ 160 µM); MIC ([12]; X400, read-out: minimal inhibitory concentration (MIC)): > 128 µg/mL; MIC ([13]; Staphylococcus epidermidis, 270, read-out: minimal inhibitory concentration (MIC)): > 128 µg/mL; MIC ([14]; V41, read-out: minimal inhibitory concentration (MIC)): > 128 µg/mL
CC[C@H]1OC(=O)[C@H](C)[C@@H](O[C@H]2C[C@@](C)(OC)[C@@H](O)[C@H](C)O2)[C@H](C)[C@@H](O[C@@H]2O[C@H](C)C[C@H](N(C)C)[C@H]2O)[C@](C)(O)C[C@@H](C)[C@H]2[C@H](C)[C@@H](OCN2C2CCCC2)[C@]1(C)O [Compound 60, 9-Deoxo-9-(cyclopentylamino)-9,11(N,O)-cyclic Methylene Adduct of Erythromycin]	1 µg/mL (≈ 1.23 µM)	8 µg/mL (≈ 9.81 µM)	0.06 µg/mL (≈ 0.0736 µM)	0.5 µg/mL (≈ 0.613 µM)	0.125 µg/mL (≈ 0.153 µM)			1 µg/mL (≈ 1.23 µM)						> 128 µg/mL	> 128 µg/mL	> 128 µg/mL	
CC[C@H]1OC(=O)[C@H](C)[C@@H](O[C@H]2C[C@@](C)(OC)[C@@H](O)[C@H](C)O2)[C@H](C)[C@@H](O[C@@H]2O[C@H](C)C[C@H](N(C)C)[C@H]2O)[C@](C)(O)C[C@@H](C)[C@H](N(C)C)[C@H](C)[C@@H](O)[C@]1(C)O [Compound 69, 9-Deoxo-9-(dimethylamino)erythromycin]				0.5 µg/mL (≈ 0.655 µM)	0.25 µg/mL (≈ 0.328 µM)			2 µg/mL (≈ 2.62 µM)	2 µg/mL (≈ 2.62 µM)				> 128 µg/mL	> 128 µg/mL			MIC [1, 29]: 128 µg/mL (≈ 168 µM)
CC[C@H]1OC(=O)[C@H](C)[C@@H](O[C@H]2C[C@@](C)(OC)[C@@H](O)[C@H](C)O2)[C@H](C)[C@@H](O[C@@H]2O[C@H](C)C[C@H](N(C)C)[C@H]2O)[C@](C)(O)C[C@@H](C)[C@H](N(C)C2CCCCC2)[C@H](C)[C@@H](O)[C@]1(C)O [Compound 71, 9-Deoxo-9-[(N-cyclohexyl-N-methyl)amino]erythromycin]	16 µg/mL (≈ 19.3 µM)	128 µg/mL (≈ 154 µM)	0.125 µg/mL (≈ 0.15 µM)	8 µg/mL (≈ 9.63 µM)	1 µg/mL (≈ 1.2 µM)			8 µg/mL (≈ 9.63 µM)					> 128 µg/mL	> 128 µg/mL	> 128 µg/mL	> 128 µg/mL	MIC [1, 25]: > 128 µg/mL
CC[C@H]1OC(=O)[C@H](C)[C@@H](O[C@H]2C[C@@](C)(OC)[C@@H](O)[C@H](C)O2)[C@H](C)[C@@H](O[C@@H]2O[C@H](C)C[C@H](N(C)C)[C@H]2O)[C@](C)(O)C[C@@H](C)[C@H](NCCOC)[C@H](C)[C@@H](O)[C@]1(C)O [Compound 31, 9-Deoxo-9-[(2-Methoxyethyl)amino]erythromycin]	0.5 µg/mL (≈ 0.63 µM)	8 µg/mL (≈ 10.1 µM)			0.06 µg/mL (≈ 0.0757 µM)	2 µg/mL (≈ 2.52 µM)	0.5 µg/mL (≈ 0.63 µM)		0.5 µg/mL (≈ 0.63 µM)	> 128 µg/mL	> 128 µg/mL	> 128 µg/mL					MIC [1, 29]: 16 µg/mL (≈ 20.2 µM); MIC ([4]; Table IV, agar dilution): 0.03 µg/mL (≈ 0.0378 µM); MIC ([5]; Table IV, agar dilution): 0.125 µg/mL (≈ 0.158 µM); MIC [6, 23]: 32 µg/mL (≈ 40.4 µM); MIC ([10]; Staphylococcus epidermidis, 222, Table IV, agar dilution, read-out: minimal inhibitory concentration (MIC)): 0.25 µg/mL (≈ 0.315 µM)
CC[C@H]1OC(=O)[C@H](C)[C@@H](O[C@H]2C[C@@](C)(OC)[C@@H](O)[C@H](C)O2)[C@H](C)[C@@H](O[C@@H]2O[C@H](C)C[C@H](N(C)C)[C@H]2O)[C@](C)(O)C[C@@H](C)[C@H](NCCOCCOC)[C@H](C)[C@@H](O)[C@H]1C [Compound 49]	1 µg/mL (≈ 1.22 µM)		0.015 µg/mL (≈ 0.0183 µM)	0.25 µg/mL (≈ 0.304 µM)	0.015 µg/mL (≈ 0.0183 µM)	8 µg/mL (≈ 9.74 µM)	0.5 µg/mL (≈ 0.609 µM)	1 µg/mL (≈ 1.22 µM)		> 128 µg/mL	> 128 µg/mL	128 µg/mL (≈ 156 µM)					MIC [1, 29]: 128 µg/mL (≈ 156 µM); MIC ([3]; Table IV, agar dilution): 4 µg/mL (≈ 4.87 µM); MIC [6, 17]: 128 µg/mL (≈ 156 µM); MIC [11, 24]: 4 µg/mL (≈ 4.87 µM)
